Measured values as given in publication PMC9437101, “Curcumin-based-fluorescent probes targeting ALDH1A3 as a promising tool for glioblastoma precision surgery and early diagnosis” (Communications Biology, 2022).
“And” between values parts separate entries of the source, which are not always exact repeats. Identical values can stand only once.

Legend:
[1] = system: U87MG glioblastoma cells; experiment: Fluorescent microscopy of probe in cells; type: cell-based, human; settings: 10 µM; for fluorescence in cells: 2 h
Experimental: In total, 20,000 cells/ml of U87MG, HEK293T, hASTRO and 4T1 were seeded onto glass cover slips in 24-well plates. The cells incubated at 37 °C in a 5% CO2 atmosphere overnight. Cells were washed with 1 ml of PBS buffer two times, then a 10 μM solution of probes was added to each well for 2 h. For nuclei staining, 1 µg/ml of DAPI was added the last 15 min of treatment. The cover slips were removed and washed with PBS buffer, and fixed with 0.5 ml of 4% formaldehyde solution for 10 min. The cover slips were washed with 1 ml of PBS, then slides were prepared using Mounting Media (Merck Life Science). Fluorescence images were acquired using a Leica THUNDER Imager 3D Live Cell (Leica Microsystems, Wetzlar, Germany) microscope equipped with an S Fluor 40×/1.3 objective using the LAS X software.

[2] = molecular target: T1, ALDH1A1 (Homo sapiens, UniProt P00352); experiment: LC-HRMS analysis of isoenzyme activity in presence of probe; type: biochemical; settings: 1 h incubation, LC-HRMS
T1 construct: E. coli BL21 (DE3) were transformed with the full-length expression vector of each isoform; His-tag; made in house; host or cells: E. coli BL21 (DE3)
T1 sequence (P00352 1-501): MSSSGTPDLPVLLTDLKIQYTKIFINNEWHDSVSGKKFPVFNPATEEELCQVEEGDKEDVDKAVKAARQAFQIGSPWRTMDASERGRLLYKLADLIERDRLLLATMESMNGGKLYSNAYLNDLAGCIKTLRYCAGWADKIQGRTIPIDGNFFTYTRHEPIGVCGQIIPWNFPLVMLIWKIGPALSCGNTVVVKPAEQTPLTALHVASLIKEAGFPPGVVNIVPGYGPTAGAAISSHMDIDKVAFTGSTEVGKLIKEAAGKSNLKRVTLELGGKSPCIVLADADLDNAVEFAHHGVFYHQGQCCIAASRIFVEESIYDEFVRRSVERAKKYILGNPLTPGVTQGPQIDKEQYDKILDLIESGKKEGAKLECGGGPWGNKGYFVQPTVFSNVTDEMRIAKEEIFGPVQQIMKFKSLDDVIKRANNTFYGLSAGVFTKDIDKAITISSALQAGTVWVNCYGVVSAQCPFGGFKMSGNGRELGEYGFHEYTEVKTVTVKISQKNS
Experimental: (§1) These analyses were carried out by using UPLC-HRMS procedure with Vanquish UPLC system coupled to a Thermo Scientific Q-Exactive Plus, operating in negative electrospray ionization mode. The chromatographic separation was carried out using a Phenomenex Synergi 4 µ Polar-RP 80 A (150 × 2 mm) equipped with a Phenomenex Polar-RP (4 mm × 2 mm) security guard column. The mobile phase consisted of A: acetonitrile 0.1% formic acid and B: 0.1% formic acid. We used a linear elution gradient, starting from 80% of A to 5% A in 3 min, 3 min at 5% A, an equilibration of 4 min for a total run time of 10.00 min, at 300 µl/min flow rate. The autosampler temperature was set at 15 °C, the injection volume was 5 µl and column was maintained at 40 °C. The heated electrospray ionization source was used, with a spray voltage of […], with a capillary temperature of 300 °C, a heater temperature of 350 °C, a sheat gas flow of 45 arbitrary units (AU), an auxiliary gas flow of 10 AU and a sweep gas flow of 0 AU. During the Parallel Reaction Monitoring acquisition in negative ion mode, the instrument operated at 17,500 resolution in presence of the inclusion list (m/z = 596.20384 and m/z = 612.19875 for Probe 10 and Probe 10-COOH respectively; m/z = 534.18819 and m/z = 506.156888 for Probe 11 and Probe 11-COOH respectively) with an automatic gain control target of 2 × 10^5 charges and a maximum injection time of 100 ms. Before injecting the samples, the blanks in the list were analyzed and every biological sample was analyzed in duplicate. The biological samples analyzed were as follow: (1) Enzymatic assay Buffer; (2) Enzymatic assay Buffer + NAD^+; (3) Enzymatic assay Buffer + Probe 10 or Probe 11; (4) Enzymatic assay Buffer + ALDH1A1; (5) Enzymatic assay Buffer + ALDH1A2; (6) Enzymatic assay Buffer + ALDH1A3; (7) Enzymatic assay Buffer + ALDH1A1 + Probe 10 or Probe 11; (8) Enzymatic assay Buffer + ALDH1A2 + Probe 10 or Probe 11; (9) Enzymatic assay Buffer + ALDH1A3 + Probe 10 or Probe 11. All samples were diluted 1:1 with ACN, then 1:100 in ACN-Water 1:1 prior the LC-HRMS analysis.

[3] = molecular target: T2, ALDH1A3 (Homo sapiens, UniProt P47895); experiment: as above; type: biochemical; settings: for oxidation of probe to carboxylic derivative / substrate behaviour: 1 h incubation, LC-HRMS
T2 construct: E. coli BL21 (DE3) were transformed with the full-length expression vector of each isoform; His-tag; made in house; host or cells: E. coli BL21 (DE3)
T2 sequence (P47895 1-512): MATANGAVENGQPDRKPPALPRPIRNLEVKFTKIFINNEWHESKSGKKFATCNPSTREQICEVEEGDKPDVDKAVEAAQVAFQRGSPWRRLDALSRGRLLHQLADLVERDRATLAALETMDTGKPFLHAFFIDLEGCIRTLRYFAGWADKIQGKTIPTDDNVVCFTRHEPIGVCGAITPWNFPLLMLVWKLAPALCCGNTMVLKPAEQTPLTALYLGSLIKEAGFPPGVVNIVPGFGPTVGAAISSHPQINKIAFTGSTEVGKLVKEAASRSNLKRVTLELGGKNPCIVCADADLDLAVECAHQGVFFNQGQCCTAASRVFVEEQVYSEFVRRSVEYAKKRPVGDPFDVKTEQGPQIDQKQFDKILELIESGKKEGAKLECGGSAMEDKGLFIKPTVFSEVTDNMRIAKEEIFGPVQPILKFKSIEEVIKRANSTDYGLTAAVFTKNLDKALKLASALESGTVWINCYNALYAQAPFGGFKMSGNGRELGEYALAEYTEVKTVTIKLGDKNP
Experimental: as §1

[4] = molecular target: T3, ALDH1A2 (Homo sapiens, UniProt O94788); experiment: as above; type: biochemical; settings: 1 h incubation, LC-HRMS
T3 construct: E. coli BL21 (DE3) were transformed with the full-length expression vector of each isoform; His-tag; made in house; host or cells: E. coli BL21 (DE3)
T3 sequence (O94788 1-518): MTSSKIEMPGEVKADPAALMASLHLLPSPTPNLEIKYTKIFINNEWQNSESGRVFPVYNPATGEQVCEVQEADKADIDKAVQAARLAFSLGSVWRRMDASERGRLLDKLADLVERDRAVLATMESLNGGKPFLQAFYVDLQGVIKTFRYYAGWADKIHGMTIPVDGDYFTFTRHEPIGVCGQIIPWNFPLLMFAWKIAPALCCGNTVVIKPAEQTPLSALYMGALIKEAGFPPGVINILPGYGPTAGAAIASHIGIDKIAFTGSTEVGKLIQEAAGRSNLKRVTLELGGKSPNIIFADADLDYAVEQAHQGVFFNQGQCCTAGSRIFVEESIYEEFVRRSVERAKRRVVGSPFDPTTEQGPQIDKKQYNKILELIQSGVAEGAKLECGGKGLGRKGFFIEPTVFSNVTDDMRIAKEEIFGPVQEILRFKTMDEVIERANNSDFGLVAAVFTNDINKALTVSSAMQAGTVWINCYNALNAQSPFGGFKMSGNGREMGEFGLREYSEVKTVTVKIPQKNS
Experimental: as §1

CCOC(=O)Cn1cc(COc2ccc(/C=C/C(=O)/C=C(O)/C=C/c3ccc(O)c(OC)c3)cc2OC)nn1 [Probe 11]
fluorescence in cells [1]: fluorescence has been observed using Probe 11 only in U87MG cell lines
oxidation of probe to carboxylic derivative / substrate behaviour [2]: has not been shown to be a substrate
oxidation of probe to carboxylic derivative / substrate behaviour [3]: has not been shown to be a substrate
oxidation of probe to carboxylic derivative / substrate behaviour [4]: has not been shown to be a substrate

COc1cc(/C=C/C(O)=C/C(=O)/C=C/c2ccc(OCc3cn(CCOc4ccc(C=O)cc4)nn3)c(OC)c2)ccc1O [Probe 10]
fluorescence in cells [1]: can determine fluorescence
If ROI ([1]; U87-MG, 2 h (Fig. 5g)): 238.82 a.u. and 283.69 a.u. and 302.7 a.u. and 195.53 a.u. and 182.63 a.u.
oxidation of probe to carboxylic derivative / substrate behaviour [2]: fully metabolized
oxidation of probe to carboxylic derivative / substrate behaviour [3]: no oxidation could be detected
AREA TIC of Probe 10 ([3]; ALDH1A3, 1 h): 17952906 and 17991269 and 13247597 and 14014206
oxidation of probe to carboxylic derivative / substrate behaviour [4]: in part
